Experimental data from patent US11434205B2, “Substituted imidazole carboxylate derivatives and the use thereof” (priority 2018, dated 2022).
Read-outs that look alike come from different tables or passages of the source.

What was measured:
[1] = test system: rats; assay: Loss of righting reflexes (LORR) assay in rats, ED50 by up and down method; assay type: in vivo, rat; conditions: tail vein, class symbols; for ED50: Rattus norvegicus
How it was run: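 Adult male Sprague-Dawley rats (250-300 g) dosed i.v. via tail vein at 0.1 mL/s. Anesthesia scored as loss of righting reflex lasting >30 s; ED50 derived by up-and-down method.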

[2] = test system: rats; assay: Pharmacological characteristics at equivalent doses (2×ED50) in rats; conditions: 2×ED50, tail vein; for Adverse reactions: Red urine (incidence): DMSO solution (DMSO alone 10/10); for Adverse reactions: Tremor (incidence): animals affected/animals; for Onset time: time of LORR
How it was run: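 Adult male Sprague-Dawley rats (250-300 g, n=8) received each drug at twice its ED50 via tail vein (0.6 mL at 0.1 mL/s). Onset of anesthesia taken as time to LORR.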

[3] = test system: rats; assay type: in vivo, rat; conditions: rats of the MAP/HR figures, 2×ED50, tail vein; same value in min
How it was run: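 Rats implanted with telemetry (left ventricular and abdominal aortic catheters, ECG leads) at least one week before recording; compounds given via lateral tail-vein catheter. MAP and HR sampled every 15 s for 30 min before and after dosing to judge hemodynamic stability.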

[4] = test system: rats
Procedure: Adult male Sprague-Dawley rats (250-300 g) were selected for the experiment. […] The anesthesia effects of the compounds were assessed in rats using a LORR assay and a period >30 s was considered as an indicator of general anesthesia. Then the up and down method was used to determine 50% effective dose (ED50). The drugs were administered through the tail vein of rats in a volume of 0.6 mL and at a rate of 0.1 mL/s.

[5] = test system: rats; conditions: continuous tail vein infusion at 2×MIR, LORR maintained 1 hour
Procedure: Pharmacological Effects of the Compounds on Continuous Infusion in Rats
Adult male Sprague-Dawley rats with body weight ranging from 250 to 300 gm were selected for continuous infusion test. […] Time to recovery of righting reflex from stopping infusion, and time to fully awake from stopping infusion were recorded.

[6] = test system: rats; assay type: in vivo, rat; conditions: rats of the MAP/HR figures, 2×ED50, tail vein
[7] = test system: secretion of corticosterone, H295R cell line; assay: cells; assay type: cell-based
Procedure: (§1) The Effects of the Compounds on Adrenocortical Function In Vitro Test
(§2) Then secretion of the cortisol and corticosterone in the supernatant, was measured using HPLC-MS/MS method to determine whether the compounds of the present invention had adrenotoxic potential.

[8] = test system: secretion of cortisol, H295R cell line; assay: cells; assay type: cell-based
Procedure: as §1, §2

[9] = H295R cell line, 0.1-10000 nM, HPLC-MS/MS, Table D3

Row | Structure (SMILES) | ED50 [1] | Righting reflex duration [2] | Adverse reactions: Red urine (incidence) [2] | Adverse reactions: Tremor (incidence) [2] | Onset time [2] | recovery time of the test animals' righting reflex [3] | Approximate therapeutic index [4] | Minimal lethal dose [4] | Onset time ([5]; Table E4) | Recovery time after stopping infusion ([5]; Table E4) | Types and incidence of adverse reactions ([5]; Table E4) | recovery time of the test animals' righting reflex [6] | Onset time ([5]; Table D4) | Recovery time after stopping infusion ([5]; Table D4) | Types and incidence of adverse reactions ([5]; Table D4) | other results
1 | C#CC1(OC(=O)c2c(Cl)nc(Cl)n2[C@H](C)c2ccccc2)COC1 [Compound E148] | 0.5 to 1 mg/kg | 0.49 ± 0.38 min | urine (8/8) | (5/8), Red | 0.75 ± 0.24 min | 0.97 min | >12 | >10 mg/kg | 3 to 4 min | 11 to 16 min | Myoclonus (2/6), Tremor (3/6) | 58 s |  |  |  | 
2 | C=C=CC1(SC(=O)c2c(F)ncn2[C@H](C)c2ccccc2)CSC1 [Compound E90] | 0.01 to 0.1 mg/kg | 1.29 ± 0.64 min | urine (8/8) | (1/8), Red | 0.50 ± 0.20 min | 1.42 min | >30 | >1.5 mg/kg | 2 to 3 min | 9 to 12 min | Tremor (2/6) | 85 s |  |  |  | 
3 | CC#CC(C)OC(=O)c1c(Cl)ncn1[C@H](C)c1ccccc1 (some centres unmarked) [Compound E116] | 0.5 to 1 mg/kg | 1.18 ± 0.56 min | (8/8) |  | 0.61 ± 0.23 min | 1.53 min | >16 | >10 mg/kg | 3 to 4 min | 11 to 15 min | Tremor (1/6), Tongue stretching (3/6) | 92 s |  |  |  | 
4 | C=CC(C)(C)OC(=O)c1c(F)ncn1[C@H](C)c1ccccc1 [Compound E32] |  | 3.86 ± 1.13 min | urine (8/8) | (3/8), Red | 0.30 ± 0.14 min | 3.65 min | >30 | >4 mg/kg | 2 to 3 min | 12 to 16 min | Tremor (2/6), Tongue stretching (3/6) | 219 s |  |  |  | ED50 (mg/kg) [1]: B (B means that the measured ED50 is in the range of 0.10-0.50 mg/kg (excluding 0.10 mg/kg, including 0.50 mg/kg).); Sedation duration (mg/kg) [2]: 8.70 ± 2.07
5 | CC#CC1(OC(=O)c2cncn2[C@H](C)c2ccccc2)COC1 [Compound D39] | 0.5 to 1 mg/kg | 1.11 ± 0.34 min | urine (8/8) |  | 0.20 ± 0.05 min | 6.25 min | >15 | >9 mg/kg |  |  |  | 375 s |  |  |  | Corticosterone as an indicator to determine the presence of inhibition [7, 9]: 0; EC50 ([7]; Homo sapiens, NCI-H295R, read-out: EC50 (Corticosterone)): > 1000 nM; Cortisol as an indicator to determine the presence of inhibition [8, 9]: 0; EC50 ([8]; Homo sapiens, NCI-H295R, read-out: EC50 (Cortisol)): > 1000 nM; Adverse reactions: Hindlimb rigidity (incidence) [2]: Hindlimb rigidity (1/8),; Adverse reactions: Myoclonus (incidence) [2]: Myoclonus (1/8), Red
6 | C#CC1(OC(=O)c2cncn2[C@H](C)c2ccccc2)COC1 [Compound D3] | 0.5 to 1 mg/kg | 1.05 ± 0.29 min | urine (8/8) |  | 0.19 ± 0.05 min | 1.27 min | >10 | >8 mg/kg |  |  |  | 76 s | 2 to 3 min | 7 to 9 min | Restlessness (2/6), Tremor (3/6) | Adverse reactions: Restlessness (incidence) [2]: Restlessness (4/8), Red
7 | C#CC1(COC(=O)c2cncn2[C@H](C)c2ccccc2)CCC1 [Compound D10] | 0.5 to 1 mg/kg | 6.04 ± 2.27 min | (8/8) | Tremor (2/8), Red urine | 0.14 ± 0.03 min | 10.08 min | >12 | >6 mg/kg |  |  |  | 605 s | 3 to 4 min | 13 to 17 min | Tremor (6/6) | 
8 | C=C=CC(C)OC(=O)c1cncn1[C@H](C)c1ccccc1 (some centres unmarked) [Compound D22] | 0.1 to 0.5 mg/kg | 4.51 ± 1.63 min | urine (8/8) |  | 0.24 ± 0.07 min | 0.83 min | >11 | >2 mg/kg |  |  |  | 50 s | 3 to 4 min | 14 to 18 min | Euphoria (2/6), Tremor (4/6) | Adverse reactions: Euphoria (incidence) [2]: Euphoria (1/8), Red
9 | C#CC1(OC(=O)c2cncn2[C@H](C)c2ccccc2)CCC1 [Compound D1] | 0.1 to 0.5 mg/kg | 4.28 ± 1.78 min | Red urine (8/8) |  | 0.26 ± 0.10 min | 13.08 min | >14 | >6 mg/kg |  |  |  | 785 s | 3 to 4 min | 11 to 14 min | Tremor (2/6) | 
10 | CCOC(=O)c1c(Cl)nc(Cl)n1[C@H](C)c1ccccc1 [Compound E129] | 0.1 to 0.5 mg/kg | 0.68 ± 0.34 min | urine (8/8) | (3/8), Red | 0.87 ± 0.26 min | 0.87 min | >30 | >9 mg/kg | 3 to 4 min | 8 to 13 min | No | 52 s |  |  |  | 
11 | CCOC(=O)c1c(Cl)ncn1[C@H](C)c1ccccc1 [Compound E100] |  | 1.98 ± 1.85 min | urine (8/8) | (5/8), Red | 0.60 ± 0.24 min | 1.83 min | >30 | >12 mg/kg | 2 to 3 min | 9 to 14 min | Tremor (3/6) | 110 s |  |  |  | ED50 (mg/kg) [1]: B (B means that the measured ED50 is in the range of 0.10-0.50 mg/kg (excluding 0.10 mg/kg, including 0.50 mg/kg).); Sedation duration (mg/kg) [2]: 5.82 ± 2.11
12 | C=C=CC1(OC(=O)c2c(F)ncn2[C@H](C)c2ccccc2)CCC1 [Compound E64] | 0.01 to 0.1 mg/kg | 2.28 ± 1.28 min | urine (8/8) | (2/8), Red | 0.31 ± 0.06 min | 2.48 min | >40 | >1.5 mg/kg | 2 to 3 min | 11 to 14 min | No | 149 s |  |  |  | 
13 | C[C@H](c1ccccc1)n1c(Cl)nc(Cl)c1C(=O)OC1CSC1 [Compound E133] | 0.5 to 1 mg/kg | 2.10 ± 0.86 min | urine (8/8) | (4/8), Red | 0.25 ± 0.10 min | 2.30 min | >12 | >10 mg/kg | 3 to 4 min | 9 to 12 min | Tremor (4/6) | 138 s |  |  |  | 
